Experimental data as given in US4616038A, “Combination of thienamycin-type antibiotics with dipeptidase inhibitors” (Merck & Co., Inc., priority 1985, dated 1986).

Tests used:
[1] = test system: Staphalococcus aureus; experiment: Systemic efficacy of thienamycin on the treatment of Staphylococcus aureus infections in the mouse; type: in vivo, Staphalococcus aureus (in mouse); details: coadministered with thienamycin
[2] = target: T1, renal dipeptidase (E.C.3.4.13.11) (Sus scrofa, UniProt P22412); experiment: Inhibition of glycyldehydrophenylalanine (GDP) hydrolysis by renal dipeptidase in vitro; type: biochemical, pig (hog); details: concentration producing 50% inhibition; substrate GDP 0.05 mM; pH 7.1; 37° C.; read-out: Ki
T1 construct: solubilized preparation of dipeptidase isolated from hog kidneys; from tissue; host or cells: hog kidney
T1 sequence (P22412 17-409): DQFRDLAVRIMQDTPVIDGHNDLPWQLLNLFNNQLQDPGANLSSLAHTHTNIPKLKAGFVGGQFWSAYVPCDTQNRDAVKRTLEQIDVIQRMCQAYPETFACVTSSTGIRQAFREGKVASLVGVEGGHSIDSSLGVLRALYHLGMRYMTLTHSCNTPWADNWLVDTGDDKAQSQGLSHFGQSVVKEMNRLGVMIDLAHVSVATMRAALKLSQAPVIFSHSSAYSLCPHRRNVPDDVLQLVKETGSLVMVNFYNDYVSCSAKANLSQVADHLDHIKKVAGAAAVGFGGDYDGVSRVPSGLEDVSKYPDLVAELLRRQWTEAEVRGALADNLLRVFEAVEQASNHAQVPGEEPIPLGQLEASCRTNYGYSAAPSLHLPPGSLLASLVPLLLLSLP
Experimental: This measured the ability of compounds to inhibit hydrolysis of glycyldehydrophenylalanine (GDP) by a solubilized preparation of dipeptidase isolated from hog kidneys The procedure is as follows to a 1 ml. system containing 50 mM "MOPS" (3-(N-morpholino)propanesulfonic acid) buffer, pH 7.1, is added 5 μg of lyophilized enzyme, and the test compound at a final concentration of 0.1 mM. After a five minute incubation at 37° C., GDP is added to a final concentration of 0.05 mM. Incubation is continued for 10 minutes, at 37° C. and hydrolysis of GDP is measured by the change in optical density with time at 275 nm. Inhibition of the enzyme is gauged by comparison to a standard run containing no inhibitor and is expressed as the inhibitor binding constant, Ki.
A 1 ml. system of 50 mM "MOPS" buffer, pH 7.1, is used. To this is added 5 μg of the pig renal enzyme and an amount of the test compound to bring its final concentration to 0.1 mM. After a five minute incubation at 37° C., an amount of GDP is added to bring its final concentration to 0.05 mM. The system is again incubated for 10 minutes, at 37° C. Hydrolysis of GDP is measured by its change in optical density with time at 275 nm. Inhibition of the enzyme is gauged by comparison to a standard run containing no inhibitor and is presented as percent inhibition.

[3] = target: T2, renal dipeptidase (Sus scrofa, UniProt P22412); experiment: Substrate affinity and maximal velocity of hydrolysis by renal dipeptidase; type: biochemical, hog; details: GDP compared with thienamycin
T2 construct: GPI-anchored disulfide-linked homodimer
T2 sequence (P22412 17-384): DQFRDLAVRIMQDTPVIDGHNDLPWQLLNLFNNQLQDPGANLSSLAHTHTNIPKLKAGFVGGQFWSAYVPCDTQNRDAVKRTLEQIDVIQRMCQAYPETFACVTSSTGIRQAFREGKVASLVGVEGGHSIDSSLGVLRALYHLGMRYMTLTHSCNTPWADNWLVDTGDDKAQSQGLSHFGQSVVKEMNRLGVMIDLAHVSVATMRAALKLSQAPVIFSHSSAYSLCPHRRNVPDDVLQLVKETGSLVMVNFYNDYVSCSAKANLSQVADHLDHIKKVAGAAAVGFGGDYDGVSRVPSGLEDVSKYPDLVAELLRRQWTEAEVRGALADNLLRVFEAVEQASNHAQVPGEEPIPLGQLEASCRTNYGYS

Row | Ki [2] [µM] | SMILES | enhancement of systemic antibacterial activity of thienamycin [1] | maximal velocity of hydrolysis by renal dipeptidase [3]
1 | 6 | C/C=C(\NC(=O)CC(C)C)C(=O)O [Compound 7, Z-2-isovaleramido-2-butenoic acid] | approximately three-fold | 
2 |  | NCC(=O)NC(=Cc1ccccc1)C(=O)O [GDP, glycyldehydrophenylalanine] |  | much higher maximal velocity of hydrolysis
